Measured values reported in patent US10159756B2, “Complex of mannosyl serum albumin, method of preparing the same, optical imaging probe and kit comprising the same” (Korea University Research and Business Foundation, priority 2014, dated 2018).

Columns and labels:
[1] = system: metastatic sentinel lymph node; assay: Detection of metastatic sentinel lymph node (ex vivo fluorescence, H & E staining, immunostaining); type: in vivo, rabbit; details: n = 4 for ICG group, n = 5 for ICG:MSA group
Experimental: A VX2 rabbit tumor model (Radiology, 2005; 234:423-430) was established, and after 2 weeks, 60 μM of each of ICG and ICG:MSA was injected subcutaneously into the peritumor of the tumor model. Then, the efficiency with which each of ICG and ICG:MSA detects a sentinel lymph node was examined using a fluorescence imaging system (developed by the applicant). Dissected normal and metastatic lymph nodes were confirmed ex vivo by fluorescence, and whether cancer metastasized to the lymph nodes was examined by H & E tissue staining and immunostaining.

lymph nodes = assay: Biodistribution after injection into the mouse footpad; type: in vivo
Experimental: Each of the ICG: MSA, prepared in Example 3, and ICG, was treated into U937 cells (Korean Cell Line Bank (KCLB) No. 21593.1) activated with PMA (phorbol 12-myristate 13-acetate, Sigma, USA) (FIG. 9a), and the distribution thereof in the cells was monitored. […] In addition, each of ICG:MSA and ICG was injected into the mouse footpad, and the biodistribution thereof was examined.

For `CC1(C)C(/C=C/C=C/C=C/C=C2\N(CCCCS(=O)(=O)O)c3ccc4ccccc4c3C2(C)C)=[N+](CCCCS(=O)(=O)[O-])c2ccc3ccccc3c21` [ICG, Indocyanine green], the “Metastatic SLN rate” value [1] was 50%, the Total [1] was 2 and the biodistribution (lymph nodes) was “distributed in the popliteal lymph nodes and did spread to the axillary lymph nodes within a short time”.
